Residues, ends and D or L forms follow the SMILES beside them. *: point of attachment. Cbz = O=C(OCc1ccccc1)*; CH2F = FC*

This note sets out measurements from paper PMC7041945, “Misfolded proteins bind and activate death receptor 5 to trigger apoptosis during unresolved endoplasmic reticulum stress” (eLife, 2020).

In one series the test system is HCT116 cells. In words: Annexin V (and SytoxBlue) flow cytometry for apoptosis. The format is cell-based, Homo sapiens. As to the method: Cells seeded in a 6-well plate were transfected with the specified plasmid for 24 hr and harvested via trypsinization in complete media to allow a 30 min recovery at 37°C. The samples were then centrifuged at 500xg for 5 min and resuspended In 150 μl of a 1:20 dilution of Annexin V-AlexaFluor 647 conjugate (Thermo Scientific #A23204). Samples were transferred to a 96-well U-bottom plate and incubated in the dark for 15 min at RT. The distribution of apoptotic cells was determined by flow cytometry on a BD LSR II.

Series [1] has as its system DR5 / ERGIC53 / giantin in HCT116 cells. In words: Immunofluorescence co-localization (Pearson's correlation per cell). The format is cell-based, Homo sapiens. As to the method:
HCT116 were seeded at 25000 cells per well in an 8-well glass-bottom μSlide (Ibidi 80827) pre-coated with Collagen IV (Sigma-Aldrich C6745, 0.03 mg/ml in PBS incubated for 30 min at RT, and then rinsed off with PBS x 3) in growth media 18 hr prior to transfection (see above for protocol). 24 hr post-transfection, the cells were fixed using 4% paraformaldehyde (PFA, Electron Microscopy Sciences) or methanol, depending on the antibody combination used for immunostaining (see table below). Samples were protected from light after fixation to preserve GFP fluorescence.
For fixation with 4% PFA, 32% PFA was added directly to the well in growth media for a 1:8 dilution and incubated for 10–15 min at RT. Cells were then permeabilized with PHEM buffer (60 mM PIPES, 25 mM HEPES, 10 mM EGTA, 2 mM MgCl2-hexahydrate, pH 6.9) containing 0.1% Triton-X100 for 10 min at RT for three washes.
For fixation with methanol, media was removed and cells were washed with cold PBS. Then methanol (pre-cooled at −20°C) was added to the well and incubated at −20°C for 3–4 min. The methanol was promptly aspirated and replaced with PHEM buffer (without Triton X-100), followed by two more 10 min washes with PHEM at RT.
To block against non-specific antibody interactions, cells were rinsed in PHEM (without 0.1% Triton X-100) and then incubated with PHEM containing 2% normal goat serum (Jackson Immunoresearch Laboratories, 005-000-121) for 1 hr at RT. Primary antibodies were incubated in blocking solution overnight at 4°C at the dilution noted in the table above. Cells were then washed with PHEM buffer for 10 min at RT x three and incubated with secondary antibodies, anti-mouse-AlexaFluor546 (Invitrogen A11030) and anti-rabbit-AlexaFluor633 (Invitrogen A21071), diluted 1:1000 in PHEM with 2% normal goat serum. (Secondary antibody solutions were centrifuged at 15000xg for 20 mins at 4°C to remove aggregates prior to incubating with cell samples.) After a 1 hr incubation at RT, cells were washed with PHEM buffer once, then incubated with PHEM buffer containing nuclear stain (DAPI, Molecular Probes, Eugene, OR, D-1306, 5 μg/mL), and finally rinsed with PHEM buffer twice before imaging.
Samples were imaged on a spinning disk confocal with Yokogawa CSUX A1 scan head, Andor iXon EMCCD camera, and 40x Plan Apo air Objective NA 0.95 or 100x ApoTIRF objective NA 1.49 (Nikon).
From the 405 nm channel, cell nuclei were identified as primary objects using maximum correlation thresholding (MCT) and shape to distinguish clumped objects. Secondary objects were outlined using propagation from the nuclei (DAPI) after applying MCT from the 488 nm, 561 nm, and 633 nm channels. Tertiary objects for each cell was identified as the mask of each nucleus subtracted from the mask of its corresponding secondary object in each channel, yielding masks for intracellular GFP-tagged protein from the 488 nm channel, for intracellular DR5 from the 561 nm channel, and for the organelle marker in the 633 nm channel. For overlap between DR5 and MPZ/RHO-GFP, Pearson’s correlation coefficients were calculated within the MPZ/RHO mask for each cell to filter out untransfected cells. For overlap between DR5/MPZ and organelle markers, Pearson’s correlation coefficients were calculated within tertiary objects for the organelle marker in GFP+ cells. Statistical analyses for all data sets were performed using GraphPad Prism 6.0.

The subject of another series is DR5 ECD. The series is described as follows: Peptide array binding of Fc-tagged DR5 ectodomain (MPZ and RHO sequences; amino acid enrichment). Further details: species or system human. The note with it: rhodopsin EL1-EL3 peptide array; for Corrected rawintden - min: min subtracted; for normalized (binding intensity): normalized from corrected rawintden - min. The procedure: Peptide arrays were purchased from the MIT Biopolymers Laboratory as described previously in [Karagöz et al. (2017)] and [Gardner and Walter (2011)]. The sequences of each protein were tiled from N- to C-terminus in 18-amino-acid-long peptides shifting by three amino acids from the previous spot. The arrays were incubated in methanol for 10 min, and then washed in binding buffer (50 mM HEPES pH 7.2, 250 mM NaCl, 10% glycerol) for 10 min at room temperature x 3. 500 nM of Fc-tagged DR5 extracellular domain (ECD, a kind gift from Scot Marsters) was incubated with the array in binding buffer at room temperature for 1 hr. Then, the array was washed three times for 10 min with binding buffer to remove unbound protein. The bound DR5 ECD was then transferred onto a nitrocellulose membrane via a semi-dry transfer apparatus (Owl HEP-1) at 80 mA for 45 min at 4°C. The membrane was then blocked with 1xPBST with 5% milk for 1 hr at room temperature and probed with 1:1000 anti-Fc (One World Lab #603–510) overnight at 4°C followed by 1:10000 anti-mouse IgG-HRP (Promega #W4021) for 1 hr at RT. The membrane was imaged using chemi-luminescence with the Bio-Rad Universal Hood II Gel Doc below saturating pixel intensities. The signal of each spot was quantified using Max Quant and normalized to the maximum intensity of all the spots on the same array.

Series [2] has as its system caspase 8 in HCT116 lysates. In words: Caspase 8 activity (caspase glo 8) of cell lysates / IP inputs. The note with it: for average fold change relative to empty: HCT116, rep 1, average of 4 dilutions; for norm RLUs: rep 2, normalized by lysate quant. The series is classed as cell-based, Homo sapiens. The procedure:
Cells harvested from a 6-well plate were resuspended in 100 μl of lysis buffer (30 mM HEPES pH 7.2, 150 mM NaCl, 1% Triton X-100) and lysed via needle shearing (25G, 10 passes) followed by a 30 min incubation on ice. Supernatant was collected after centrifuging at 1000xg for 5 min. For the caspase activity assay, 10 μl of supernatant diluted with lysis buffer (1:25, 1:50, 1:100 to stay within linear range of luminescence measurements) was incubated with 10 μl of the luminogenic caspase glo 8 substrate (Promega #PRG8200) in a 384-white walled plate (Corning 3574) for 45 min at RT before measuring luminescence on a Spectramax-M5 plate reader.

Setting [3] is: HCT116, 24 hr post-transfection, Mean ± SEM.

On to `CC(NC(=O)C(NC(=O)OCc1ccccc1)C(C)C)C(=O)NC(CC(=O)O)C(=O)CF` (stereo not drawn) [zVAD, reference compound] (Cbz-Val-Ala-Asp-CH2F; configuration not given here), for which the “annexin V staining with pan-caspase inhibitor” value with HCT116 cells (cells expressing MPZ-ecto peptide) is given as “diminished the extent of annexin V staining”.
Regarding “DR5 siRNA: siRNA oligonucleotides against DR5 (Dharmacon L-004448-00-0005) (guide AAGACCCUUGUGCUCGUUGUCUU; further chemistry not given here) [reference compound]”, the DR5 immunofluorescence signal result in series [1] (siRNA 48 hr, MPZ-GFP 24 hr) was “eliminated the DR5 signal”. Besides, the “PARP cleavage and annexin V staining after DR5 knockdown” value in the series on HCT116 cells (DR5 siRNA 48 hr, then MPZ-GFP overexpression 24 hr) was “significantly reduced PARP cleavage and annexin V staining”.
For EQPQYYLAEPWQLHGYFV, in the series with DR5 ECD, the “Corrected rawintden - min” value is recorded as 507200 and the “normalized (binding intensity)” value stood at 0.1237.
For ESTHQGSNFMNGTEGPNF, in the series on DR5 ECD, the “Corrected rawintden - min” value amounted to 320074 and the “normalized (binding intensity)” value stood at 0.07803.
“ETEREQPEGGRDAISIEHEA [MPZ-ecto peptide^Arom→Glu-eGFP, expressed GFP-tagged construct with all aromatic residues of the MPZ-ecto peptide mutated to Glu]”: in series [1] (setting [3]), the “Pearson's correlation per cell of GFP-tagged peptide with DR5” value is listed as 0.27 ± 0.03 and the “Pearson's correlation per cell of GFP-tagged peptide with ERGIC” value is given as 0.25 ± 0.03. The “Pearson's correlation per cell between DR5 and ERGIC” value in series [1] (HCT116 expressing GFP-tagged peptide, 24 hr, Mean ± SEM) was determined as 0.50 ± 0.03. In the series with HCT116 cells (transfected 24 hr, no z-VAD), the “Annexin V +, Sytox Blue + cells” value is 8.17% of cells; the “Annexin V +, Sytox Blue - cells” value is given as 4.89% of cells; the “Annexin V -, Sytox Blue - cells” value is given as 86.5% of cells.
For the compound FGPTGCNLERYIPEGMQC, in the series on DR5 ECD, the “Corrected rawintden - min” value was 1562181 and the “normalized (binding intensity)” value is listed as 0.3809.
On to FSNVTGVVRSPFEQPQYY, for which, in the series on DR5 ECD, the “Corrected rawintden - min” value is recorded as 470277 and the “normalized (binding intensity)” value amounted to 0.1147.
As for HQGSNFMNGTEGPNFYVP, in the series on DR5 ECD, the “Corrected rawintden - min” value is 360135 and the “normalized (binding intensity)” value is recorded as 0.0878.
For the compound IDYYTLKPEVNNESTHQG, in the series with DR5 ECD, the “Corrected rawintden - min” value worked out at 1420533 and the “normalized (binding intensity)” value is 0.3463.
Consider INS1, for which the results for the “average fold change relative to empty” value in series [2] (siDR5) and in series [2] (siNT) were 1.524 fold change and 2.0013 fold change, respectively.
Take KPEVNNESTHQGSNFMNG: in the series with DR5 ECD, the “Corrected rawintden - min” value is reported as 941789 and the “normalized (binding intensity)” value stood at 0.2296.
On the same counts, the results for LAEPWQLHGYFVFGPTGC are 890759 and 0.2172.
Consider LHGYFVFGPTGCNLERYI, for which, in the series on DR5 ECD, the “Corrected rawintden - min” value was 1142815 and the “normalized (binding intensity)” value was 0.2786.
On the same counts, the results for MNGTEGPNFYVPFSNVTG are 827091 and 0.2016.
As for MQCSCGIDYYTLKPEVNN, in the series with DR5 ECD, the “Corrected rawintden - min” value is reported as 1701232 and the “normalized (binding intensity)” value is on record as 0.4148.
As to NLERYIPEGMQCSCGIDY, in the series with DR5 ECD, the “Corrected rawintden - min” value is on record as 395368 and the “normalized (binding intensity)” value worked out at 0.09639.
For the compound PEGMQCSCGIDYYTLKPE, in the series with DR5 ECD, the “Corrected rawintden - min” value turned out to be 1657676 and the “normalized (binding intensity)” value worked out at 0.4041.
With PNFYVPFSNVTGVVRSPF, in the series with DR5 ECD, the “Corrected rawintden - min” value came to 624655 and the “normalized (binding intensity)” value is recorded as 0.1523.
With PWQLHGYFVFGPTGCNLE, in the series on DR5 ECD, the “Corrected rawintden - min” value amounted to 1093768 and the “normalized (binding intensity)” value came out at 0.2667.
Take QYYLAEPWQLHGYFVFGP: in the series with DR5 ECD, the “Corrected rawintden - min” value is on record as 996384 and the “normalized (binding intensity)” value was 0.2429.
RYIPEGMQCSCGIDYYTL: in the series with DR5 ECD, the “Corrected rawintden - min” value came to 1340468 and the “normalized (binding intensity)” value amounted to 0.3268.
With SCGIDYYTLKPEVNNEST, in the series with DR5 ECD, the “Corrected rawintden - min” value is reported as 1488599 and the “normalized (binding intensity)” value was found to be 0.3629.
On the same counts, the results for SNFMNGTEGPNFYVPFSN are 337810 and 0.08236.
On to SPFEQPQYYLAEPWQLHG, for which, in the series with DR5 ECD, the “Corrected rawintden - min” value is reported as 517083 and the “normalized (binding intensity)” value stood at 0.1261.
TEGPNFYVPFSNVTGVVR: in the series on DR5 ECD, the “Corrected rawintden - min” value came to 1182345 and the “normalized (binding intensity)” value is 0.2883.
As for TGCNLERYIPEGMQCSCG, in the series with DR5 ECD, the “Corrected rawintden - min” value was determined as 1149984 and the “normalized (binding intensity)” value amounted to 0.2804.
The corresponding values for VNNESTHQGSNFMNGTEG are 294091 and 0.0717.
As for VTGVVRSPFEQPQYYLAE, in the series on DR5 ECD, the “Corrected rawintden - min” value is reported as 402567 and the “normalized (binding intensity)” value is 0.09815.
VVRSPFEQPQYYLAEPWQ: in the series on DR5 ECD, the “Corrected rawintden - min” value was 375649 and the “normalized (binding intensity)” value was 0.09158.
On to YFVFGPTGCNLERYIPEG, for which, in the series on DR5 ECD, the “Corrected rawintden - min” value is recorded as 490636 and the “normalized (binding intensity)” value amounted to 0.1196.
For the compound YTLKPEVNNESTHQGSNF, in the series on DR5 ECD, the “Corrected rawintden - min” value is 870062 and the “normalized (binding intensity)” value was 0.2121.
Turning to YVPFSNVTGVVRSPFEQP, in the series on DR5 ECD, the “Corrected rawintden - min” value was found to be 640840 and the “normalized (binding intensity)” value is 0.1562.
Consider insGFP, for which the “norm RLUs” value in series [2] (dilution 0.025) was 1827.1 RLUs; in series [2] (dilution 0.05) it was 3654.19 RLUs; in series [2] (dilution 0.1) it was 8264.86 RLUs.
